In US4788197A, “Pyrazine derivatives useful as platelet aggregation inhibitors” (Terumo Kabushiki Kaisha, priority 1985, dated 1988):
Read-outs that look alike come from different tables or passages of the source.

What was measured:
platelet aggregation = test: Platelet aggregation-inhibiting action (Born's turbidimetric method, platelet-rich plasma); assay type: cell-based, rabbit; settings: Oryctolagus cuniculus, 0.05 h
Protocol: Nine volumes of blood was drawn from the carotid artery of a rabbit using a syringe containing one volume of 3.8% solution of sodium citrate. The blood was centrifuged to obtain platelet-rich plasma (PRP: 7×10^5 platelets/μl).
In a cuvette was placed 268 μl of the PRP, which was warmed in an isothermic bath at 37° C. for 2 minutes. To the cuvette was added 2 μl of an ethanol solution of a pyrazine derivative to be tested, followed by an incubation for 3 minutes. To the incubate was added a solution of a platelet-aggregation inducer, arachidonic acid or collagen. Measurement was made by Born's turbidimetric method (for example, see J. Physiol., vol. 168, p. 178, 1968). 50% inhibitory concentration for the platelet aggregation caused by arachidonic acid (50 μmol.) or collagen (10 μg/ml) was given in Table 1 using acetylsalicylic acid as the reference.
The 50% inhibitory concentration as shown in table means the concentration of a solution of the pyrazine derivative required for inhibiting the platelet aggregation to 50% when the platelet aggregation in the absence of a pyrazine derivative is taken as 100%.

cycloxygenase = molecular target: T1, cycloxygenase (Oryctolagus cuniculus, UniProt O97554); test: Cycloxygenase inhibiting activity (washed platelets as cycloxygenase source); assay type: biochemical; settings: washed rabbit platelets, 14C-labelled arachidonic acid, 37° C., 3 minutes; read-out: 50% Inhibitory concentration (cycloxygenase)
T1 construct: The washed platelets thus obtained were employed as a cycloxygenase source; from tissue; host or cells: washed rabbit blood platelets
T1 sequence (O97554 31-606): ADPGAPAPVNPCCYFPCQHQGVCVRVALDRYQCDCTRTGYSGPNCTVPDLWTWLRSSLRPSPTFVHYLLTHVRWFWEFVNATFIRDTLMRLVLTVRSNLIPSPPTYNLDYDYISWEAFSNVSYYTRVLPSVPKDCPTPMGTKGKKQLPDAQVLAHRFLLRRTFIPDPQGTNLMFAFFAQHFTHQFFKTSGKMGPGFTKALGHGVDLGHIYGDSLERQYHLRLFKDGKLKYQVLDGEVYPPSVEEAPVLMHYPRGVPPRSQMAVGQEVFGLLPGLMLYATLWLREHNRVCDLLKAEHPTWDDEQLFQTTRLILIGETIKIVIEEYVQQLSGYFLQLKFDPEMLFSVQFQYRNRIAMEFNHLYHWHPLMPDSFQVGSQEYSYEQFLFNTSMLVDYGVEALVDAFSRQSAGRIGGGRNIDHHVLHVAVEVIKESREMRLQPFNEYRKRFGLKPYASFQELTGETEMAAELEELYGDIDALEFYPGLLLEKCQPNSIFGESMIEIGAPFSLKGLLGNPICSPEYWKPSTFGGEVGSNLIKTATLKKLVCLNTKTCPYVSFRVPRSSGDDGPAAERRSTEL
Protocol: Nine volumes of blood was drawn from the abdominal artery of a rabbit using a syringe containing one volume of 3.8% solution of sodium citrate. Centrifugation of the blood afforded platelet-rich plasma. To the platelet-rich plasma was added 77 mM EDTA solution in a volume of 1/10 per volume of the plasma. The mixture was thoroughly mixed and centrifuged at 2500 rpm for 10 minutes. The supernatant was discarded, and the platelets were suspended in approximately 3 ml of a washing solution which was prepared by dissolving 134 mM of sodium chloride, 15 mM of trisaminomethane, 1 mM of EDTA and 5 mM of D-glucose in twice-distilled water with a pH adjusted with 1N hydrogen chloride to 7.4. The suspension was centrifuged at room temperature at 2000 rpm for 10 minutes. The supernatant was discarded, and the precipitated platelets were re-suspended in a phosphate buffer at pH 8.0 to adjust number of the platelets to 1×10^6 per μl.
The washed platelets thus obtained were employed as a cycloxygenase source.
To 3 μg of arachidonic acid and 0.2 μCi (1 μg) of ^14 C-labelled arachidonic acid placed in a glass-stoppered test tube was added one drop of a propylene glycol/ethanol solution (1:3 by volume). The ethanol was evaporated under nitrogen. To the residue were added 50 μl of a solution to be tested and then 450 μl of the washed platelets. The mixture was reacted at 37° C. for 3 minutes.
To the reaction mixture was added with ice cooling one drop of 1N hydrogen chloride to adjust the pH to 2-3. To the resulting mixture was added 2 ml of ethyl acetate, followed by extraction by shaking for 10 minutes and centrifugal separation at 4° C. at 2500 rpm for 10 minutes.
The supernatant was transferred to a flask and concentrated. The residue was dissolved in 100 μl of ethanol, and the entire solution was spotted on a silica gel thin plate (Merck, 60 F254).
The plate was developed by approximately 18 cm with a developer solution (chloroform/methanol/acetic acid/waters=70:8:1:0.8), followed by measurement by a radiochromatoscanner of the sum of radioactivities of prostaglandin F2α, thromboxan B2, […], prostaglandin D2 and HHT to determine the inhibiting activity.

[1] = aggregation induced by arachidonic acid (50 μmol.), rabbit PRP, 37° C., 3 min incubation, read-out: 50% aggregation inhibitory concentration, Arachidonic acid
[2] = aggregation induced by collagen (10 μg/ml), rabbit PRP, 37° C., 3 min incubation, read-out: 50% aggregation inhibitory concentration, Collagen

IC50 (platelet aggregation; [1]) [µM]	IC50 (platelet aggregation; [2]) [µM]	IC50 (cycloxygenase) [µM]	Structure (SMILES)	IC50 (platelet aggregation; read-out: 50% aggregation inhibitory concentration, Arachidonic acid) [µM]	IC50 (platelet aggregation; read-out: 50% aggregation inhibitory concentration, Collagen) [µM]
			CC(=O)Oc1ccccc1C(=O)O [Aspirin, acetylsalicylic acid, reference compound]	14	560
0.03	0.042	30	COc1ccc(-c2ncc(C)nc2-c2ccc(OC)cc2)cc1 [Example 2, 2,3-bis(p-methoxyphenyl)-5-methylpyrazine]		
0.025	0.79		COc1ccc(-c2ncc(C(C)C)nc2-c2ccc(OC)cc2)cc1 [Example 7, 2,3-Bis(p-methoxyphenyl)-5-isopropylpyrazine]		
0.084	0.92	62	COc1ccc(-c2nc(C)c(C)nc2-c2ccc(OC)cc2)cc1 [Example 10, 2,3-bis(p-methoxyphenyl)-5,6-dimethylpyrazine]		
4.5	14		COc1cccc(Cc2cnc(-c3ccccc3)c(-c3ccccc3)n2)c1 [Example 5, 2,3-Diphenyl-5-(m-methoxybenzyl)pyrazine]		
0.046	0.64		CCc1cnc(-c2ccc(OC)cc2)c(-c2ccc(OC)cc2)n1 [Example 8, 2,3-bis(p-methoxyphenyl)-5-ethylpyrazine]		
1.7	35	220	COc1ccc(Cc2cnc(-c3ccccc3)c(-c3ccccc3)n2)cc1 [Example 4, 2,3-Diphenyl-5-(p-methoxybenzyl)pyrazine]		
0.44	0.79	86	COc1ccc(-c2ncc(Cc3cccs3)nc2-c2ccc(OC)cc2)cc1 [Example 9, 2,3-Bis(p-methoxyphenyl)-5-(2-thienylmethyl)pyrazine]		
0.2	5		COc1ccc(-c2ncc(Cc3ccccc3)nc2-c2ccc(OC)cc2)cc1 [Example 6, 2,3-Bis(p-methoxyphenyl)-5-benzylpyrazine]		
8	46		c1ccc(Cc2cnc(-c3ccccc3)c(-c3ccccc3)n2)cc1 [Example 3, 2,3-diphenyl-5-benzylpyrazine]		
8.5	20		Cc1cnc(-c2ccc(Cl)cc2)c(-c2ccc(Cl)cc2)n1 [Example 1, 2,3-bis(p-chlorophenyl)-5-methylpyrazine]		
